Target: AOC3 (Homo sapiens (Human), UniProt Q16853)
Experiment: MAO-Glo AOC3 assay
Type: biochemical
Details: recombinant CHO cells overexpressing AOC3 enzyme
Text: The MAO-Glo™ Assay (commercial available from PROMEGA, #V1402) provides a sensitive method for the measurement of monoamine oxidase (MAO) activity (Valley, M. P. et al., 2006, Anal. Biochem. 359: 238-246) from a variety of tissues, biofluids or recombinant expressed or purified enzymes. As substrate a derivate of the beetle luciferin ((4S)-4,5-dihydro-2-(6-hydroxybenzothiazolyl)-4-thiazole-carboxylic acid) is used, which is oxidized at a primary amine moiety. After a spontaneous elimination and a catalyzed esterase reaction, the turnover of the luciferine by the luciferase is recorded as a signal of AOC3 activity.
An aliquot of 3 μL of the compound dilution is added to a 384 well plate (Optiplate, PS, flat bottom, white, PERKIN ELMER, #6007290) with a final DMSO concentration of 6.6%. Recombinant CHO cells, overexpressing the human (1500 cells/well), mouse (1000 cells/well) or rat (500 cells/well) AOC3 enzyme are diluted in reaction buffer and added in a volume of 15 μL to the wells. After incubation for 20 minutes at 37° C., 2 μL of MAO substrate (dissolved in DMSO at 16 mM, adjusted to assay concentration in reaction buffer to a final assay concentration of 20 μM) is added and further incubated for 60 minutes at 37° C. The turnover of the substrate is determined by the addition of 20 μL of the detection-mix which was generated by the addition of reconstitution buffer with esterase (PROMEGA, #V1402) to the luciferine detection reagent (PROMEGA, #V1402). After an incubation period of 20 minutes, the luminescent signal is measured with Envision 2104 Multilabel Reader (PERKIN ELMER).

Sequence of AOC3 (Q16853 whole entry): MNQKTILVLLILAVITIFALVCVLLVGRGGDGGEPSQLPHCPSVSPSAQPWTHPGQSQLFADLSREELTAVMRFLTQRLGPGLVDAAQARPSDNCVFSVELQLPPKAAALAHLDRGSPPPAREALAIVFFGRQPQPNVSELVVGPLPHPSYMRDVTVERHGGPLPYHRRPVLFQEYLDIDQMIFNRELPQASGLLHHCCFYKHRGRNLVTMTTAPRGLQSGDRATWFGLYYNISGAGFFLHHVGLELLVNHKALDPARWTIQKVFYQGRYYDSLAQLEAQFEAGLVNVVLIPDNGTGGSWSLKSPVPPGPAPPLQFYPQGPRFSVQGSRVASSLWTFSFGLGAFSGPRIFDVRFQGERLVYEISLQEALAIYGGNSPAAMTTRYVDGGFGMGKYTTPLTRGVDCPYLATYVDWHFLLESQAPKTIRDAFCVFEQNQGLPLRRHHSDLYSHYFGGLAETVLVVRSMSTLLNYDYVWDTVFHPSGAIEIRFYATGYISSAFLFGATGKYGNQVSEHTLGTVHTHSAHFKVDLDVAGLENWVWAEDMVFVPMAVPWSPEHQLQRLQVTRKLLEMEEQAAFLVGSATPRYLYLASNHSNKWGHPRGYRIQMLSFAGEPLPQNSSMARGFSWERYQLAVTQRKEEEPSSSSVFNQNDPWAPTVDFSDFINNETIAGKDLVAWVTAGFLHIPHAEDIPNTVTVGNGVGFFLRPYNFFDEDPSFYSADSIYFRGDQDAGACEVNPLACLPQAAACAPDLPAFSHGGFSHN

Row | Compound | IC50
1 | CN1CCN(C2CCN(c3c(C#N)ccc(COC(=O)NC(=N)N)c3F)CC2)C(=O)C1 [Example 1.062] | 0.696 µM
2 | N#Cc1ccc(COC(=O)NC(=N)N)c(F)c1N1CCN(c2ccccc2)C(=O)C1 [Example 1.065] | 0.131 µM
3 | COc1cnc(C2=CCN(c3c(C#N)ccc(COC(=O)NC(=N)N)c3F)CC2)nc1 [Example 1.067] | 0.077 µM
4 | CC1CN(c2c(C#N)ccc(COC(=O)NC(=N)N)c2F)CCN1c1ccccc1 (centres unmarked) [Example 1.070] | 0.064 µM
5 | Cc1ccc(C2CCN(c3c(C#N)ccc(COC(=O)NC(=N)N)c3F)CC2)cc1 [Example 1.072] | 0.211 µM
6 | N#Cc1ccc(COC(=O)NC(=N)N)c(F)c1N1CCN(c2ccc(C(F)(F)F)cc2)CC1 [Example 1.073] | 0.103 µM
7 | COc1ccc(N2CCN(c3c(C#N)ccc(COC(=O)NC(=N)N)c3F)CC2)cc1 [Example 1.074] | 0.128 µM
8 | Cc1cnc(C2=CCN(c3c(C#N)ccc(COC(=O)NC(=N)N)c3F)CC2)nc1 [Example 1.075] | 0.085 µM
9 | N#Cc1ccc(COC(=O)NC(=N)N)c(F)c1N1C2CCC1CC(c1ccccc1)C2 (centres unmarked) [Example 1.077] | 0.293 µM
10 | N#Cc1ccc(COC(=O)NC(=N)N)c(F)c1N1CCC(c2ccc(C(F)(F)F)cc2)CC1 [Example 1.084] | 0.502 µM
11 | N#Cc1ccc(COC(=O)NC(=N)N)c(F)c1N1CCC(O)(c2ccccc2)CC1 [Example 1.085] | 0.28 µM
12 | Cc1ccc(N2CCN(c3c(C#N)ccc(COC(=O)NC(=N)N)c3F)CC2)cc1C [Example 1.086] | 0.149 µM
13 | N#Cc1ccc(COC(=O)NC(=N)N)c(F)c1N1CC(c2ccccn2)C1 [Example 1.087] | 0.47 µM
14 | N#Cc1ccc(COC(=O)NC(=N)N)c(F)c1N1CCC(N2CCCC2=O)CC1 [Example 1.088] | 0.889 µM
15 | N#Cc1ccc(COC(=O)NC(=N)N)c(F)c1N1CCC(C#N)(c2ccccc2)CC1 [Example 2.001] | 0.166 µM
16 | N#Cc1ccc(COC(=O)NC(=N)N)c(F)c1N1CCC2(CC1)CC(=O)Nc1ncccc12 [Example 2.002] | 0.093 µM
17 | N#Cc1ccc(N2CCN(c3cc(COC(=O)NC(=N)N)c(F)cc3C#N)CC2)cc1 [Example 3.001] | 0.393 µM

Now those with a lower IC50, led by results:

Row | IC50 | Compound
18 | 0.034 µM | N#Cc1ccc(COC(=O)NC(=N)N)c(F)c1N1CC=C(c2ncccn2)CC1 [Example 1.063]
19 | 0.033 µM | CN(C)c1ccc(N2CCN(c3c(C#N)ccc(COC(=O)NC(=N)N)c3F)CC2)nn1 [Example 1.064]
20 | 0.02 µM | Cc1cccc(N2CCN(c3c(C#N)ccc(COC(=O)NC(=N)N)c3F)CC2)c1 [Example 1.066]
21 | 0.055 µM | Cc1ccc(N2CCN(c3c(C#N)ccc(COC(=O)NC(=N)N)c3F)CC2)nn1 [Example 1.068]
22 | 0.027 µM | N#Cc1ccc(COC(=O)NC(=N)N)c(F)c1N1CCN(c2ncc(F)cn2)CC1 [Example 1.069]
23 | 0.012 µM | Cc1cnc(C2=CCN(c3c(C#N)ccc(COC(=O)NC(=N)N)c3F)CC2)o1 [Example 1.071]
24 | 0.056 µM | N#Cc1ccc(COC(=O)NC(=N)N)c(F)c1N1CCC(c2cccc(Cl)c2)CC1 [Example 1.076]
25 | 0.007 µM | N#Cc1ccc(COC(=O)NC(=N)N)c(F)c1N1CCN(c2ccc(Cl)cn2)CC1 [Example 1.078]
26 | 0.009 µM | N#Cc1ccc(COC(=O)NC(=N)N)c(F)c1N1CCC(C2CCN(S(N)(=O)=O)CC2)CC1 [Example 1.079]
27 | 0.02 µM | CCOc1ccc(C2CCN(c3c(C#N)ccc(COC(=O)NC(=N)N)c3F)CC2)cn1 [Example 1.080]
28 | 0.045 µM | N#Cc1ccc(COC(=O)NC(=N)N)c(F)c1N1CCN(c2ncccn2)CC1 [Example 1.081]
29 | 0.057 µM | N#Cc1ccc(COC(=O)NC(=N)N)c(F)c1N1CCN(c2ncncn2)CC1 [Example 1.082]
30 | 0.034 µM | N#Cc1ccc(COC(=O)NC(=N)N)c(F)c1N1CCN(c2cccnn2)CC1 [Example 1.083]
31 | 0.056 µM | N#Cc1ccc(COC(=O)NC(=N)N)c(F)c1N1CCC(N2CCC(O)CC2)CC1 [Example 1.089]
32 | 0.007 µM | N#Cc1ccc(COC(=O)NC(=N)N)c(F)c1N1CCN(c2ccncc2)CC1 [Example 2.003]
33 | 0.003 µM | Cc1cc(N2CCN(c3c(C#N)ccc(COC(=O)NC(=N)N)c3F)CC2)ccn1 [Example 2.004]
34 | 0.02 µM | Cc1cnc(C2CCN(c3c(C#N)ccc(COC(=O)NC(=N)N)c3F)CC2)o1 [Example 2.005]
35 | 0.033 µM | N#Cc1ccc(COC(=O)NC(=N)N)c(F)c1N1CCC(c2nnco2)CC1 [Example 2.006]

Source: US10336729B2, “4-cyano-benzyl carbamimidoylcarbamate derivatives and their use as AOC3 inhibitors” (Boehringer Ingelheim International GmbH, priority 2016, dated 2019)
